One test has as its system mouse BMP2 promoter. As to the kind of experiment: High throughput screen (ABA assay): BMP2 promoter-luciferase reporter in 2T3-BMP-2-LUC osteoblast cells. The class given is cell-based. Particulars: for EC50: Mus musculus, Osteoblast, read-out: Luciferase Activity (ED50-μM). The source says: 1995, the entire contents of which are incorporated herein by reference. This assay is also described as a portion of a study of immortalized murine osteoblasts (derived from a mouse expressing a transgene composed of a BMP2 promoter driving expression of T-antigen) in Ghosh-Choudhery, N., et al., Endocrinology (1996) 137:331-39. In this study, the immortalized cells were stably transfected with a plasmid containing a luciferase reporter gene driven by a mouse BMP2 promoter (−2736/114 bp), and responded in a dose-dependent manner to recombinant human BMP2.
Briefly, the assay utilizes cells transformed permanently or transiently with constructs in which the promoter of a bone morphogenetic protein, specifically BMP2 or BMP4, is coupled to a reporter gene, typically luciferase. These transformed cells are then evaluated for the production of the reporter gene product; compounds that activate the BMP promoter will drive production of the reporter protein, which can be readily assayed. Many thousands of compounds have been subjected to this rapid screening technique, and only a very small percentage are able to elicit a level of expression of reporter gene 5-fold greater than that produced by vehicle. […] The active compounds (“BMP promoter-active compounds” or “active compounds”) are useful in promoting bone or cartilage growth, and thus in the treatment of vertebrates in need of bone or cartilage growth.
Thousands of compounds have been tested in the assay system set forth in U.S. Ser. No. 08/458,434, filed 2 Jun. 1995, and incorporated herein by reference. […] In this screen, the standard positive control was the compound 59-0008 (also denoted “OS8”), which is of the formula: [drawing 22]
In more detail, the 2T3-BMP-2-LUC cells, a stably transformed osteoblast cell line described in Ghosh-Choudhury et al. Endocrinology (1996) 137:331-39, referenced above, was employed. The cells were cultured using α-MEM, 10% FCS with 1% penicillin/streptomycin and 1% glutamine (“plating medium”), and were split 1:5 once per week. For the assay, the cells were resuspended in a plating medium containing 4% FCS, plated in microtiter plates at a concentration of 5×10^3 cells (in 50 μl)/well, and incubated for 24 hours at 37° C. in 5% CO2. To initiate the assay, 50 μl of the test compound or the control in DMSO was added at 2× concentration to each well, so that the final volume was 100 μl. The final serum concentration was 2% FCS, and the final DMSO concentration was 1%. Compound 59-0008 (10 μM) was used as a positive control.
The treated cells were incubated for 24 hours at 37° C. and 5% CO2. The medium was then removed, and the cells were rinsed three times with PBS. After removal of excess PBS, 25 μl of 1× cell culture lysing reagent (Promega #E153A) was added to each well and incubated for at least ten minutes. Optionally, the plates/samples could be frozen at this point. To each well was added 50 μl of luciferase substrate (Promega #E152A; 10 ml Promega luciferase assay buffer per 7 mg Promega luciferase assay substrate). Luminescence was measured on an automated 96-well luminometer, and was expressed as either picograms of luciferase activity per well or as picograms of luciferase activity per microgram of protein.
Accordingly, other tested compounds can be evaluated at various concentrations, and the results compared to the results obtained for 59-0008 at 10 μM (which value would be normalized to 100). Alternatively, the reactivity of a compound to be tested can be compared directly to a negative control containing no compound.

Test [1] concerns the target T1, 20S thermophila proteasome (Methanosarcina thermophila, UniProt Q9P992).
T1 construct: purchased CalBiochem, San Diego, Calif
T1 sequence (Q9P992 10-210): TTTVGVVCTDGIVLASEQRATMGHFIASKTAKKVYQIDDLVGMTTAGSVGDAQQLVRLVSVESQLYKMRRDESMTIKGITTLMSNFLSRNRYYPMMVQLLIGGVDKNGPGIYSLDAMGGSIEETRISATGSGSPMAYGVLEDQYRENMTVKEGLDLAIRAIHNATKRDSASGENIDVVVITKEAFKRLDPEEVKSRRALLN
T1 sequence (Q59565 1-247 partner): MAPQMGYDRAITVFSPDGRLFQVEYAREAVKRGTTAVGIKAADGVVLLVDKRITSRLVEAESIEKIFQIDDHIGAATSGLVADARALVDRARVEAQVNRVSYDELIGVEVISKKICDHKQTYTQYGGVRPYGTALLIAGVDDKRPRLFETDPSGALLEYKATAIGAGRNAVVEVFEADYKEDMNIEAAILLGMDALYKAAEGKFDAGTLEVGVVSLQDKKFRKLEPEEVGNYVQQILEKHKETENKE
The experiment in a line: biochemical. As to the method: The assay involves incubating the potential inhibitor with 20S thermophila proteasomes which, in purified form, are commercially available, with a fluorogenic peptide substrate. The presence of an inhibitor will reduce the amount of fluorescence generated by the action of the proteasome fraction on the fluorogenic peptide. This assay is described in further detail in Coux, O., et al., N Rev Biochem (1996) 65:801; Adams, J., et al., Cancer Res (1999) 59:2615; and Craiu, A., et al., J Biol Chem (1997) 272:13437. Further reports are set forth in Hilt, W., et al., Trans Biochem Sci (1996) 21:96; Peters, J., Trends Biochem Sci (1994) 19:377; Maupin-Furlow, J. A., et al., J Biol Chem (1995) 270:28617; and Jensen, T. J., et al., Cell (1995) 83:129. Fluorogenic substrates and purified proteasomes are available, for example, from CalBiochem, San Diego, Calif.
Purified 20S thermophila proteasomes and the fluorogenic peptide substrate Suc-Leu-Leu-Val-Tyr-AMC (SEQ ID NO:3) are available from CalBiochem, San Diego, Calif. Briefly, serial dilutions of the inhibitor to be tested were mixed with proteasome solution at a concentration of proteasome of 0.01 mg/ml. After 30 min incubation at 37° C., substrate solution at a final concentration of 25-30 μg/ml was added and the mixture incubated at 37° C. and then read at 15 min, 30 min, and 60 min in a Fluoroscan instrument. The percentage diminution in fluorescence in the presence as compared to the absence of inhibitor is then calculated.

A further test relates to hair follicles. The experiment in a line: Induction of anagen in hair follicles in vivo (Example 12). Details: species or system C57 black mice. The protocol:
Inhibitors of the proteasomal chymotrypsin-like activity were treated for their capacity to induce transit of hair follicles into anagen in vivo in C57 black mice eight weeks of age.

The next test concerns proteasomal activity. Conditions: cited from earlier work.
For the next test, the system named is neonatal mouse calvaria. As to the kind of experiment: Neonatal mouse calvaria assay (in vitro / ex vivo) for bone formation. The class given is cell-based, ICR Swiss white mouse. Particulars: for EC50: Mus musculus, read-out: Bone Formation (ED50-μM). The protocol: An assay for bone resorption or bone formation is similar to that described by Gowen M. & Mundy G., J Immunol (1986) 136:2478-82. Briefly, four days after birth, the front and parietal bones of ICR Swiss white mouse pups are removed by microdissection and split along the sagittal suture. In an assay for resorption, the bones are incubated in BGJb medium (Irvine Scientific, Santa Ana, Calif.) plus 0.02% (or lower concentration) β-methylcyclodextrin, wherein the medium also contains test or control substances. The medium used when the assay is conducted to assess bone formation is Fitton and Jackson Modified BGJ Medium (Sigma) supplemented with 6 μg/ml insulin, 6 μg/ml transferrin, 6 ng/ml selenous acid, calcium and phosphate concentrations of 1.25 and 3.0 mM, respectively, and ascorbic acid to a concentration of 100 μg/ml is added every two days. The incubation is conducted at 37° C. in a humidified atmosphere of 5% CO2 and 95% air for 96 hours.
Following this, the bones are removed from the incubation media and fixed in 10% buffered formalin for 24-48 hours, decalcified in 14% EDTA for 1 week, processed through graded alcohols; and embedded in paraffin wax. Three […] sections of the calvaria are prepared. Representative sections are selected for histomorphometric assessment of bone formation or bone resorption. Bone changes are measured on sections cut 200 μm apart. Osteoblasts and osteoclasts are identified by their distinctive morphology.
Selected compounds and appropriate controls were assayed in vitro (ex vivo) for bone formation activity (described above in “Techniques for Neonatal Mouse Calvaria Assay (in vitro)). Histomorphometrical assessments of ex vivo calvaria were carried out using an OsteoMetrics bone morphometry measurement program, according to the manufacturer's instructions. Measurements were determined using either a 10- or 20-fold objective with a standard point counting eyepiece graticule.
New bone formation was determined (using a 10× objective) by measuring the new bone area formed in one field in 3 representative sections of each bone (4 bones per group). Each measurement was carried out ½ field distance from the end of the suture. Both total bone and old bone area were measured. Data were expressed as new bone area in μm^2.
Osteoblast numbers are determined by point counting. The number of osteoblast cells lining the bone surface on both sides of the bone are counted in one field using a 20× objective. Data are expressed as osteoblast numbers/mm of bone surface. […]

The subject of test [2] is hair follicles of skin explants. As to the kind of experiment: Cultured skin explants from 5 day old mice, hair follicle diameter and elongation (Example 11). The class given is cell-based, C3H/HeS1c mice. Conditions: 10 μM; 72 hours. As to the method: Cultured skin explants from 5 day old mice cultured for 72 hours were treated with proteasome inhibitors, non-proteasomal proteases and non-proteasomal inhibitors of NF-κB and effects on hair follicle diameter and follicle elongation were determined according to the method of Kamiya, T., et al., J Derm Sci (1998) 17:54-60. Skin slices from the dorsal skin of 5 day old C3H/HeS1c mice were cultured in 1 ml of αMEM and 0.1% BSA for 72 hours and then assessed for changes in hair follicle diameter and hair elongation under an inverted microscope, using image analysis. […] Thus, the chymotrypsin-like activity of the proteasome is the catalytic component of the proteasome that is responsible for the effects of these compounds on hair follicle differentiation and hair growth. Only proteasome inhibitors had discernable effects on these parameters.

Setting [3] is: read-out: Proteasome Activity (ED50-μM).

Read-outs that look alike come from different tables or passages of the source. Where a SMILES comes first, the peptide text is derived from it. [ ]: non-standard residue; d: D form. Nle = CCCC[C@H](N)C(=O)O

`c1ccc(N=NC2=NNc3ccccc3S2)cc1` [59-0008, 3-phenylazo-1H-4,1,2-benzothiadiazine]: in the test on mouse BMP2 promoter, the “concentration of maximal reactivity” value lay within 3 to 10 µM.

`CCCC[C@@H](C=O)NC(=O)[C@H](CC(C)C)NC(=O)[C@H](CC(C)C)NC(C)=O` [ALLN, N-Acetyl-Leu-Leu-Nle-CHO] (Ac-Leu-Leu-[Nle]-aldehyde): the EC50 in the test with mouse BMP2 promoter was 10 µM; in test [1] (setting [3]), 1.5 µM. Further, the “effect on hair follicles” value in the test with hair follicles (dose not given) is “had no effect on hair follicles”. The “effects on proteasomal activity” value with proteasomal activity is given as “no effects on proteasomal activity”.

For `COc1cc(CNC(=O)CCCC/C=C/C(C)C)ccc1O` [Capsaicin], in the test with mouse BMP2 promoter, the “activity in the ABA assay compared with proteasome inhibitors” value was “less active” and the “response in the high throughput luciferase screen” value (shortened to “response”) is recorded as “do not give promising responses”. In addition, in the test with neonatal mouse calvaria, the “new bone formation in the in vitro calvarial assay” value is given as “appeared negative”. This compound also yielded an EC50 in test [1] of 30 µM.

As for `CN1C(=O)C23CC4=CC=C[C@H](O)C4N2C(=O)C1(CO)SS3` (some centres unmarked) [Gliotoxin], in the test with mouse BMP2 promoter, the “response” value is given as “do not give promising responses”. In the test with neonatal mouse calvaria, the “new bone formation in the in vitro calvarial assay” value is reported as “did demonstrate the ability to stimulate bone growth” and the EC50 was 10 µM.

With `CC(C)C[C@H](NC(=O)[C@H](CC(C)C)NC(=O)[C@H](CC(C)C)NC(=O)OCc1ccccc1)B(O)O` [MG262], the EC50 was 0.1 µM with mouse BMP2 promoter, 0.1 µM in the test on neonatal mouse calvaria (calvarial assay in vitro) and 0.07 µM in test [1] (setting [3]).

Consider `CSCCC(C=O)NC(=O)C(CC(C)C)NC(=O)C(CC(C)C)NC(C)=O` (stereo not drawn) [N-Acetyl-Leu-Leu-Meth-CHO, N-Acetyl-Leu-Leu-Met-CHO] (Ac-Leu-Leu-Met-aldehyde; configuration not given here), for which, in test [1], the EC50 was 4 µM.

Turning to `O=C(NC1=CC(=O)c2ccccc2C1=O)c1ccccc1` [PPM-18, 2-benzoylamino-1,4-naphthoguinone], the “effect on hair follicles” value with hair follicles (dose not given) is “had no effect on hair follicles”. Also, the “effects on proteasomal activity” value in the test with proteasomal activity is given as “no effects on proteasomal activity”.

In the case of `CC(=O)CCCCn1c(=O)c2c(ncn2C)n(C)c1=O` [PTX, pentoxyfilline], in the test with neonatal mouse calvaria, the “lowest concentration enhancing new bone formation (as low as)” value is given as 0.1 μm and the “new bone formation in the in vitro calvarial assay” value is “active”. The “increase of new bone area” value in the test on neonatal mouse calvaria (100 μm) is ~3 times that of control. Also, the “enhancement of new bone area over control” value with neonatal mouse calvaria (concentration of 10 μm) is listed as “over 100%”.

Turning to `COc1cc(/C=C/C(=O)CC(=O)/C=C/c2ccc(O)c(OC)c2)ccc1O` [curcumin], the “activity in the ABA assay compared with proteasome inhibitors” value in the test with mouse BMP2 promoter is “less active”.

`CC[C@H](C)C(=O)O[C@H]1C[C@@H](C)C=C2C=C[C@H](C)[C@H](CC[C@@H]3C[C@@H](O)CC(=O)O3)[C@H]21` [lovastatin]: the “effect on hair follicles” value in the test with hair follicles (injected locally into the subcutaneous tissue in sufficient concentrations to cause local periosteal bone formation) was “had no effect on hair follicles”. For the same compound, in the test with proteasomal activity, the “effects on proteasomal activity” value is “no effects on proteasomal activity”.

Turning to `C=C(C)[C@]12C[C@@H](C)[C@@]34O[C@](Cc5ccccc5)(O[C@@H]1[C@@H]3C=C(COC(=O)Cc1ccc(O)c(OC)c1)C[C@]1(O)C(=O)C(C)=C[C@@H]41)O2` [resiniferatoxin], the “activity in the ABA assay compared with proteasome inhibitors” value in the test on mouse BMP2 promoter was “less active”.

In the case of `CC[C@H](CO)Nc1nc(NCc2ccccc2)c2ncn(C(C)C)c2n1` [roscovitine], the “response” value in the test with mouse BMP2 promoter is recorded as “do not give promising responses”. In the test on neonatal mouse calvaria, the “new bone formation in the in vitro calvarial assay” value is on record as “appeared negative”. The “effect on follicle growth” value in test [2] is “did not significantly affect follicle growth”.

Values taken from patent US6838436B1, “Inhibitors of proteasomal activity for stimulating bone growth” (Osteoscreen Inc., priority 1998, dated 2005).
